The record followed here is US9278922B2 (ABBVIE INC., priority 2009, dated 2016).

The subject of the assay is HCV 1b-Con-1 replicon. Nature of the assay: HCV 1b-Con-1 replicon assay (luciferase reporter gene, HuH-7 cells). Type of assay: cell-based, Hepatitis C virus (HCV) genotype 1b-Con1. To be noted: Hepatitis C virus, Huh-7, luciferase reporter gene activity in the replicon, in the presence of 5% FBS.

The structures appear in SMILES notation.

For `COC(=O)N[C@H](C(=O)N1CCC[C@H]1C(=O)Nc1ccc(CN(Cc2ccc(NC(=O)[C@@H]3CCCN3C(=O)[C@@H](NC(=O)OC)C(C)(C)O)cc2)c2ccccc2)cc1)C(C)(C)O` [Example 28, dimethyl [(phenylimino)bis{methanediylbenzene-4,1-diylcarbamoyl(2S)pyrrolidine-2,1-diyl[(2S)-3-hydroxy-3-methyl-1-oxobutane-1,2-diyl]}]biscarbamate], the EC50 – broadly, the concentration giving half of the maximal effect – was under 1 nM.

Consider `COC(=O)N[C@H](C(=O)N1CCC[C@H]1C(=O)Nc1ccc(CN(Cc2ccc(NC(=O)[C@@H]3CCCN3C(=O)[C@@H](NC(=O)OC)C(C)(C)C)cc2)C2CCCC2)cc1)C(C)(C)C` [Example 29, dimethyl[(cyclopentylimino)bis{methanediylbenzene-4,1-diylcarbamoyl(2S)pyrrolidine-2,1-diyl[(2S)-3,3-dimethyl-1-oxobutane-1,2-diyl]}]biscarbamate], for which the EC50 fell in the range of 100 to 250 nM.

In the case of `COC(=O)N[C@H](C(=O)N1CCC[C@H]1C(=O)Nc1ccc(CN(Cc2ccc(NC(=O)[C@@H]3CCCN3C(=O)[C@@H](NC(=O)OC)C(C)(C)C)cc2)C(C)C)cc1)C(C)(C)C` [Example 30, dimethyl ([(1-methylethyl)imino]bis{methanediylbenzene-4,1-diylcarbamoyl(2S)pyrrolidine-2,1-diyl[(2S)-3,3-dimethyl-1-oxobutane-1,2-diyl]})biscarbamate], the EC50 is 100 to 250 nM.

In the case of `CC(C)(C)[C@@H](C(=O)N1CCC[C@H]1C(=O)Nc1ccc(CN(Cc2ccc(NC(=O)[C@@H]3CCCN3C(=O)[C@@H](N3CCNC3=O)C(C)(C)C)cc2)c2ccccc2)cc1)N1CCNC1=O` [Example 31, (2S,2′S)-N,N′-[(phenylimino)bis(methanediylbenzene-4,1-diyl)]bis{1-[(2S)-3,3-dimethyl-2-(2-oxoimidazolidin-1-yl)butanoyl]pyrrolidine-2-carboxamide}], the concentration for a half-maximal effect (EC50) is under 1 nM.

With `COCCN(Cc1ccc(NC(=O)[C@@H]2CCCN2C(=O)[C@@H](NC(=O)OC)C(C)(C)C)cc1)Cc1ccc(NC(=O)[C@@H]2CCCN2C(=O)[C@@H](NC(=O)OC)C(C)(C)C)cc1` [Example 32, dimethyl ([(2-methoxyethyl)imino]bis{methanediylbenzene-4,1-diylcarbamoyl(2S)pyrrolidine-2,1-diyl[(2S)-3,3-dimethyl-1-oxobutane-1,2-diyl]})biscarbamate], the EC50 lay in the range of 100 to 250 nM.

As for `COC(=O)N[C@H](C(=O)N1CCC[C@H]1C(=O)Nc1ccc(CN(Cc2ccc(NC(=O)[C@@H]3CCCN3C(=O)[C@@H](NC(=O)OC)C(C)(C)C)cc2)c2ccon2)cc1)C(C)(C)C` [Example 33, dimethyl[(isoxazol-3-ylimino)bis{methanediylbenzene-4,1-diylcarbamoyl(2S)pyrrolidine-2,1-diyl[(2S)-3,3-dimethyl-1-oxobutane-1,2-diyl]}]biscarbamate], the EC50 fell in the range of 1 to 10 nM.

As for `COC(=O)N[C@H](C(=O)N1CCC[C@H]1c1nc2ccc(CN(Cc3ccc4nc([C@@H]5CCCN5C(=O)[C@@H](NC(=O)OC)C(C)(C)O)[nH]c4c3)c3ccccc3)cc2[nH]1)C(C)(C)O` [Example 34, methyl [(1S)-2-hydroxy-1-{[(2S)-2-(6-{[({2-[(2S)-1-{(2S)-3-hydroxy-2-[(methoxycarbonyl)amino]-3-methylbutanoyl}pyrrolidin-2-yl]-1H-benzimidazol-6-yl}methyl)(phenyl)amino]methyl}-1H-benzimidazol-2-yl)pyrrolidin-1-yl]carbonyl}-2-methylpropyl]carbamate], the EC50 was under 1 nM.

Regarding `COC(=O)N[C@H](C(=O)N1CCC[C@H]1c1nc2ccc(CN(Cc3ccc4nc([C@@H]5CCCN5C(=O)[C@@H](NC(=O)OC)[C@@H](C)O)[nH]c4c3)c3ccccc3)cc2[nH]1)[C@@H](C)O` [Example 35, methyl [(1S,2R)-2-hydroxy-1-{[(2S)-2-(6-{[({2-[(2S)-1-{(2S,3R)-3-hydroxy-2-[(methoxycarbonyl)amino]butanoyl}pyrrolidin-2-yl]-1H-benzimidazol-6-yl}methyl)(phenyl)amino]methyl}-1H-benzimidazol-2-yl)pyrrolidin-1-yl]carbonyl}propyl]carbamate], the concentration giving a half-maximal response (EC50) is under 1 nM.

In the case of `CC(C)[C@@H](C(=O)N1CCC[C@H]1C(=O)Nc1ccc(CN(Cc2ccc(NC(=O)[C@@H]3CCCN3C(=O)[C@H](C(C)C)N3CCCNC3=O)cc2)c2ccccc2)cc1)N1CCCNC1=O` [Example 36, (2S,2′S)-N,N′-[(phenylimino)bis(methanediylbenzene-4,1-diyl)]bis {1-[(2S)-3-methyl-2-(2-oxotetrahydropyrimidin-1(2H)-yl)butanoyl]pyrrolidine-2-carboxamide}], the EC50 is 1 to 10 nM.

Consider `C=CC[C@H](NC(=O)OC)C(=O)N1CCC[C@H]1C(=O)Nc1ccc(CN(Cc2ccc(NC(=O)[C@@H]3CCCN3C(=O)[C@H](CC=C)NC(=O)OC)cc2)c2ccccc2)cc1` [Example 37, dimethyl [(phenylimino)bis{methanediylbenzene-4,1-diylcarbamoyl(2S)pyrrolidine-2,1-diyl[(4S)-5-oxopent-1-ene-5,4-diyl]}]biscarbamate], for which the EC50 is 1 to 10 nM.

Turning to `CC[C@H](NC(=O)OC)C(=O)N1CCC[C@H]1C(=O)Nc1ccc(CN(Cc2ccc(NC(=O)[C@@H]3CCCN3C(=O)[C@H](CC)NC(=O)OC)cc2)c2ccccc2)cc1` [Example 38, dimethyl [(phenylimino)bis{methanediylbenzene-4,1-diylcarbamoyl(2S)pyrrolidine-2,1-diyl[(2S)-1-oxobutane-1,2-diyl]}]biscarbamate], the EC50 is 1 to 10 nM.

Regarding `COC(=O)N[C@H](C(=O)N1CCC[C@H]1C(=O)Nc1ccc(CN(Cc2ccc(NC(=O)[C@@H]3CCCN3C(=O)[C@@H](NC(=O)OC)[C@H]3CCOC3)cc2)c2ccccc2)cc1)[C@H]1CCOC1` [Example 39, dimethyl {(phenylimino)bis[methanediylbenzene-4,1-diylcarbamoyl(2S)pyrrolidine-2,1-diyl{(1S)-2-oxo-1-[(3R)-tetrahydrofuran-3-yl]ethane-2,1-diyl}]}biscarbamate], the EC50 was under 1 nM.

On to `COCC(=O)N[C@H](C(=O)N1CCC[C@H]1C(=O)Nc1ccc(CN(Cc2ccc(NC(=O)[C@@H]3CCCN3C(=O)[C@@H](NC(=O)COC)C(C)(C)C)cc2)c2ccccc2)cc1)C(C)(C)C` [Example 40, (2S,2′S)-N,N′-[(phenylimino)bis(methanediylbenzene-4,1-diyl)]bis(1-{(2S)-2-[(methoxyacetyl)amino]-3,3-dimethylbutanoyl}pyrrolidine-2-carboxamide)], for which the EC50 fell in the range of 10 to 100 nM.

On to `CC[C@H](C)[C@H](NC(=O)OC(C)(C)C)C(=O)N1CCC[C@H]1C(=O)Nc1ccc(CN(Cc2ccc(NC(=O)[C@@H]3CCCN3C(=O)[C@@H](NC(=O)OC(C)(C)C)[C@@H](C)CC)cc2)c2ccccc2)cc1` [Example 41, di-tert-butyl[(phenylimino)bis{methanediylbenzene-4,1-diylcarbamoyl(2S)pyrrolidine-2,1-diyl[(2S,3S)-3-methyl-1-oxopentane-1,2-diyl]}]biscarbamate], for which the concentration for a half-maximal effect (EC50) was 10 to 100 nM.

With `CC(C)[C@@H](C(=O)N1CCC[C@H]1C(=O)Nc1ccc(CN(Cc2ccc(NC(=O)[C@@H]3CCCN3C(=O)[C@H](C(C)C)N3CCCC3=O)cc2)c2ccccc2)cc1)N1CCCC1=O` [Example 42, (2S,2′S)-N,N′-[(phenylimino)bis(methanediylbenzene-4,1-diyl)]bis {1-[(2S)-3-methyl-2-(2-oxopyrrolidin-1-yl)butanoyl]pyrrolidine-2-carboxamide}], the EC50 was under 1 nM.

`CC(=O)N[C@@H](C(=O)N1CCC[C@H]1C(=O)Nc1ccc(CN(Cc2ccc(NC(=O)[C@@H]3CCCN3C(=O)[C@H](NC(C)=O)c3ccccc3)cc2)c2ccccc2)cc1)c1ccccc1` [Example 43, (2S,2′S)-N,N′-[(phenylimino)bis(methanediylbenzene-4,1-diyl)]bis{1-[(2R)-2-(acetylamino)-2-phenylacetyl]pyrrolidine-2-carboxamide}]: the 50% effective concentration (EC50) is under 1 nM.

With `COC(=O)N[C@H](C(=O)N1CCC[C@H]1C(=O)Nc1ccc(CN(Cc2ccc(NC(=O)[C@@H]3CCCN3C(=O)[C@@H](NC(=O)OC)C(C)(C)C)cc2)[C@@H]2CCOC2)cc1)C(C)(C)C` [Example 44, dimethyl ([(3R)-tetrahydrofuran-3-ylimino]bis{methanediylbenzene-4,1-diylcarbamoyl(2S)pyrrolidine-2,1-diyl[(2S)-3,3-dimethyl-1-oxobutane-1,2-diyl]})biscarbamate], the EC50 is 10 to 100 nM.

Take `COC(=O)N[C@@H](CC(C)C)C(=O)N1CCC[C@H]1C(=O)Nc1ccc(CN(Cc2ccc(NC(=O)[C@@H]3CCCN3C(=O)[C@H](CC(C)C)NC(=O)OC)cc2)c2ccccc2)cc1` [Example 45, dimethyl [(phenylimino)bis{methanediylbenzene-4,1-diylcarbamoyl(2S)pyrrolidine-2,1-diyl[(2S)-4-methyl-1-oxopentane-1,2-diyl]}]biscarbamate]: the EC50 was 1 to 10 nM.

With `CCC[C@H](NC(=O)OC)C(=O)N1CCC[C@H]1C(=O)Nc1ccc(CN(Cc2ccc(NC(=O)[C@@H]3CCCN3C(=O)[C@H](CCC)NC(=O)OC)cc2)c2ccccc2)cc1` [Example 46, dimethyl [(phenylimino)bis{methanediylbenzene-4,1-diylcarbamoyl(2S)pyrrolidine-2,1-diyl[(2S)-1-oxopentane-1,2-diyl]}]biscarbamate], the EC50 was 1 to 10 nM.

`COC(=O)N[C@H](C(=O)N(C)[C@@H](C)C(=O)Nc1ccc(CN(Cc2ccc(NC(=O)[C@H](C)N(C)C(=O)[C@@H](NC(=O)OC)C(C)(C)C)cc2)c2ccccc2)cc1)C(C)(C)C` [Example 47, dimethyl[(phenylimino)bis{methanediylbenzene-4,1-diylimino[(2S)-1-oxopropane-1,2-diyl](methylimino)[(2S)-3,3-dimethyl-1-oxobutane-1,2-diyl]}]biscarbamate]: the concentration for a half-maximal effect (EC50) fell in the range of 1 to 10 nM.

Take `COC(=O)N[C@H](C(=O)N1C[C@H](O)C[C@H]1C(=O)Nc1ccc(CN(Cc2ccc(NC(=O)[C@@H]3C[C@@H](O)CN3C(=O)[C@@H](NC(=O)OC)C(C)(C)C)cc2)c2ccccc2)cc1)C(C)(C)C` [Example 48]: the EC50 was in the range of 1 to 10 nM.
